The subject of test [1] is T1, Ks5A7.
T1 construct: full length, 452 aa, 52,509 Da (53,573 Da tagged), C-terminal 6xHis tag (pET29b, primer-encoded LE linker) kept; E. coli Rosetta (DE3); ~160 kDa by gel filtration; GH1; N-terminus from primer MMKFNENFVWG, C-terminus IEENGENL; silent NdeI site removal
Kind of test: released glucose, Amplex Red glucose oxidase assay. The following applies: McIlvaine buffer pH 5.5, 45°C. In kind it is biochemical, metagenome (uncultured bacterium, Kusaya gravy). The text has this: released glucose, Amplex Red glucose oxidase assay on Ks5A7

The subject of test [2] is T1, Ks5A7. The experiment in a line: p-nitrophenol release, […] nm, initial rates. In kind it is biochemical, metagenome (uncultured bacterium, Kusaya gravy). To be noted: McIlvaine buffer pH 5.5, 45°C, no glucose added.

The Km is the substrate concentration at which the rate is half of its maximum. `OC[C@H]1O[C@@H](O[C@H]2[C@H](O)[C@@H](O)C(O)O[C@@H]2CO)[C@H](O)[C@@H](O)[C@@H]1O` (stereo partly drawn) [Cellobiose]: the Km in the test on Ks5A7 [1] came out at 358 ± 55 µM. Still for that read-out and setting: next, `OC[C@H]1O[C@@H](O[C@H]2[C@H](O)[C@@H](O)[C@H](O[C@H]3[C@H](O)[C@@H](O)[C@H](O[C@H]4[C@H](O)[C@@H](O)[C@H](O[C@H]5[C@H](O)[C@@H](O)C(O)O[C@@H]5CO)O[C@@H]4CO)O[C@@H]3CO)O[C@@H]2CO)[C@H](O)[C@@H](O)[C@@H]1O` (stereo partly drawn) [Cellopentaose]: 132 ± 11 µM. Still for that read-out and setting: next, `OC[C@H]1O[C@@H](O[C@H]2[C@H](O)[C@@H](O)[C@H](O[C@H]3[C@H](O)[C@@H](O)[C@H](O[C@H]4[C@H](O)[C@@H](O)C(O)O[C@@H]4CO)O[C@@H]3CO)O[C@@H]2CO)[C@H](O)[C@@H](O)[C@@H]1O` (stereo partly drawn) [Cellotetraose]: 160 ± 12 µM. In the case of `OC[C@H]1O[C@@H](O[C@H]2[C@H](O)[C@@H](O)[C@H](O[C@H]3[C@H](O)[C@@H](O)C(O)O[C@@H]3CO)O[C@@H]2CO)[C@H](O)[C@@H](O)[C@@H]1O` (stereo partly drawn) [Cellotriose], the Km in the test on Ks5A7 [1] turned out to be 163 ± 16 µM.

As for `C[C@H]1O[C@@H](Oc2ccc([N+](=O)[O-])cc2)[C@H](O)[C@@H](O)[C@H]1O` [pNPFuc], the Km in the test on Ks5A7 [2] came to 152 ± 4 µM.

On to `O=[N+]([O-])c1ccc(O[C@@H]2O[C@H](CO)[C@@H](O)[C@H](O)[C@H]2O)cc1` [pNPGlc], for which, in the test on Ks5A7 [2], the Km stood at 78 ± 2 µM.
